Test system: endothelial cells
Experiment: MTT to formazan conversion (viability)
Type: cell-based, porcine
Conditions: 1 mM, 60 minutes
Experimental: The viability of endothelial cells was judged by incubation with 1 mM of the flavoring compounds, followed by determination of 3-(4,5-dimethyl-2-thiazolyl)-2,5-diphenyltetrazolium bromide (MTT) to formazan conversion using the Cayman MTT Cell Proliferation Assay Kit purchased through VWR International (Vienna, Austria).

Compound	Formazan formation (% of control)
CC(=O)c1ccccn1 [Acetylpyridine, 1-(Pyridin-2-yl)ethan-1-one]	102±4.4 % of control

Test system: rat aortic rings
Experiment: Relaxation of U-46619 precontracted aortic rings to acetylcholine
Conditions: vehicle, no flavoring, 95% CI, read-out: EC50 of vascular relaxation to acetylcholine
Experimental: Animal experiments were performed in compliance with the Austrian law on experimentation with laboratory animals (last amendment 2013) based on the European Union guidelines for the Care and the Use of Laboratory Animals (European Union Directive 2010/63/EU). Unsexed Sprague-Dawley rats (obtained from Charles River, Sulzfeld, Germany) were housed at the local animal facility in approved cages. They were fed standard chow (Altromin 3023; obtained from Königshofer Futtermittel, Ebergassing, Austria) and received water ad libitum. Animals were euthanized in a box that was gradually filled with CO2 until vital signs had ceased (cessation of respiration and circulation). […]
For isometric tension measurements, vessel rings with intact endothelium were suspended in 5-ml organ baths containing oxygenated Krebs-Henseleit buffer (concentrations in mM: NaCl 118.4, NaHCO3 25, KCl 4.7, KH2PO4 1.2, CaCl2 2.5, MgCl2 1.2, D-Glucose 11; pH 7.4), as previously described in detail. After equilibration for 60 min at the optimal resting tension of 20 mN, maximal contractile activity was determined with a depolarizing solution containing 60 mM K^+. […]
Effects are expressed as percent of relaxation of U-46619-induced contraction. Concentration-response curves of different ring segments from a single animal were averaged and counted as an individual experiment.

EC50 [µM]	Compound
0.055	CC(=O)OCC[N+](C)(C)C [acetylcholine]

Test system: endothelial cells
Experiment: LDH release (membrane integrity)
Conditions: 1 mM, 60 minutes; maximum = 1% Triton
Experimental: To test for membrane integrity, endothelial cells were assayed for release of lactate dehydrogenase (LDH) into the culture medium. Subsequent to incubation with flavoring compounds (1 mM each) for 1 hour, 20-μl aliquots of the culture media were mixed with 200 μl of reagent buffer (1 mM pyruvate and 0.1 mM NAD^+ in PBS). The decrease in light absorbance at 340 nm was monitored using a diode array spectrophotometer (Hewlett Packard 8452A). Maximum LDH release was determined by treating the cells with 1% Triton X-100.

LDH release (% of maximum)	Compound
0.7±0.12 % of maximum	CC(=O)c1ccccn1 [Acetylpyridine, 1-(Pyridin-2-yl)ethan-1-one]

Test system: Porcine aortic endothelial cells (endogenous NO/cGMP pathway)
Experiment: A23187 (Ca2+ ionophore)-induced endothelial cGMP formation
Type: cell-based
Conditions: NNA 0.3 mM
Experimental: Porcine aortic endothelial cells were isolated as described and cultured at 37°C, 5% CO2 for up to 3 passages in Dulbecco´s modified Eagle´s medium, containing 10% heat-inactivated fetal calf serum (FCS), 100 U/ml penicillin, 0.1 mg/ml streptomycin, and 1.25 μg/ml amphotericin B. Prior to experiments, cells were subcultured into 24-well plates (determination of cGMP formation) or 6-well plates (determination of L-citrulline formation).
Accumulation of intracellular 3',5'-cyclic GMP (cGMP) was determined as previously described. Briefly, endothelial cells were washed and preincubated with the compounds to be tested for 15 minutes at 37°C in 50 mM Tris buffer, pH 7.4, containing 100 mM NaCl, 5 mM KCl, 1 mM MgCl2, 2.5 mM CaCl2, 1 mM 3-isobutyl-1-methylxanthine, and 1 μM indomethacin. Reactions were started by addition of the Ca^2+ ionophore A 23187 (final concentration 1 μM) or the NO donor DEA/NO (final concentration 1 μM) and terminated after 4 minutes by removal of the incubation medium and addition of 0.01 M HCl. Within 1 h, intracellular cGMP was completely released into the supernatant and measured by radioimmunoassay.

Compound	Effect on A23187-induced cGMP accumulation
N=C(NCCC[C@H](N)C(=O)O)N[N+](=O)[O-] [NNA, N^G-nitro-L-arginine, reference compound]	completely inhibited

Test system: rat aortic rings
Experiment: Effect of flavorings on vascular tone of U-46619 precontracted aortic rings
Conditions: Rattus norvegicus, absence of L-NAME; 95% CI; read-out: EC50 of relaxation of pre-contracted vessels (Control)
Experimental: Unsexed Sprague-Dawley rats (obtained from Charles River, Sulzfeld, Germany) were housed at the local animal facility in approved cages. […] Animals were euthanized in a box that was gradually filled with CO2 until vital signs had ceased (cessation of respiration and circulation). Subsequently, the thorax of the animals was opened, the thoracic aorta was removed, cleaned from connective tissue and immediately used for assessment of vessel function.
After equilibration for 60 min at the optimal resting tension of 20 mN, maximal contractile activity was determined with a depolarizing solution containing 60 mM K^+. […] When contraction had reached a stable plateau (~after 20 min) cumulative concentration-response curves were established with flavorings. Where indicated, the effects of the flavorings on vascular tone were tested in the presence of the NOS inhibitor N^G-nitro-L-arginine methyl ester (L-NAME, 0.2 mM).
Concentration-response curves of different ring segments from a single animal were averaged and counted as an individual experiment.

Compound	EC50 [µM]
O=Cc1ccccc1 [Benzaldehyde, benzaldehyde]	2200
CC(=O)c1ccccn1 [Acetylpyridine, 1-(Pyridin-2-yl)ethan-1-one]	3700

Same assay, conditions: Rattus norvegicus, presence of L-NAME 0.2 mM; 95% CI; read-out: EC50 of relaxation of pre-contracted vessels (L-NAME)

Compound	EC50 [µM]
O=Cc1ccccc1 [Benzaldehyde, benzaldehyde]	2500
CC(=O)c1ccccn1 [Acetylpyridine, 1-(Pyridin-2-yl)ethan-1-one]	5600

Test system: endothelium-denuded rat aortic rings
Experiment: cAMP and cGMP levels in endothelium-denuded aortic rings
Conditions: 10 µM
Source text: 1 S4 Table. […]
2 endothelium-denuded rat aortic rings.
Flavoring (fmol x mg-1) (fmol x mg-1)
4 En d o th e liu m-denuded rings, treated with test compounds as described in the
5 Materials and methods section of the main text, were freeze-clamped when maximal
6 relaxation had been reached. Rings were homogenized in 5% trichloroacetic acid
7 and analyzed for cAMP and cGMP by radioimmunoassay. Forskolin and DEA/NO
8 were used to induce maximal accumulation of cAMP and cGMP, respectively. Data
9 shown are mean values±SEM of 3 (forskolin and DEA/NO) or 6 (basal,
10 cinnamaldehyde and eugenol) rings; n.d., not determined, *p<0.05 vs. basal (ANOVA
11 and Dunnett's post hoc test).

Compound	cAMP [fmol x mg-1]
C=C[C@@]1(C)CC(=O)[C@]2(O)[C@@]3(C)[C@@H](O)CCC(C)(C)[C@@H]3[C@H](O)[C@H](OC(C)=O)[C@@]2(C)O1 [Forskolin, reference compound]	9309±488

Molecular target: T1, soluble guanylate cyclase (sGC) (Bos taurus, UniProt P16068+P19687)
T1 construct: The activity of sGC purified from bovine lung; from tissue; host or cells: bovine lung
T1 sequence (P19687 1-691): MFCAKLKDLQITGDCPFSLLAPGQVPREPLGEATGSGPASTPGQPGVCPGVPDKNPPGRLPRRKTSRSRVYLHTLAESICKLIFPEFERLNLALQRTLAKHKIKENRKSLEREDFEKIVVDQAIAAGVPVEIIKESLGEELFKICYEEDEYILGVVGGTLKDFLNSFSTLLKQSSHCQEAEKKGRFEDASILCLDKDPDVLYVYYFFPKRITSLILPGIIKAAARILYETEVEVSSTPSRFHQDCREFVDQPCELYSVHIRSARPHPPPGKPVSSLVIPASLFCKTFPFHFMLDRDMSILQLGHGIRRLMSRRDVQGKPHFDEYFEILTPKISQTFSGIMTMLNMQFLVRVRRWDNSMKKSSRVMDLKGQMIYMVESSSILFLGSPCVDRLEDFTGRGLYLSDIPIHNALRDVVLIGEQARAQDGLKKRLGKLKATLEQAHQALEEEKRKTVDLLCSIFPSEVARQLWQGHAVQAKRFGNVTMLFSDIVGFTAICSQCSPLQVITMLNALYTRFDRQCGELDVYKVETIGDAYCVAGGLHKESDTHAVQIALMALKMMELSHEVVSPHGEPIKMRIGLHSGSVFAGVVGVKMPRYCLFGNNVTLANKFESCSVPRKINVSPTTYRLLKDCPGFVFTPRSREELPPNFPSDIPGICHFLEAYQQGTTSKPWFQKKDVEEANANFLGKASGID
T1 sequence (P16068 1-619): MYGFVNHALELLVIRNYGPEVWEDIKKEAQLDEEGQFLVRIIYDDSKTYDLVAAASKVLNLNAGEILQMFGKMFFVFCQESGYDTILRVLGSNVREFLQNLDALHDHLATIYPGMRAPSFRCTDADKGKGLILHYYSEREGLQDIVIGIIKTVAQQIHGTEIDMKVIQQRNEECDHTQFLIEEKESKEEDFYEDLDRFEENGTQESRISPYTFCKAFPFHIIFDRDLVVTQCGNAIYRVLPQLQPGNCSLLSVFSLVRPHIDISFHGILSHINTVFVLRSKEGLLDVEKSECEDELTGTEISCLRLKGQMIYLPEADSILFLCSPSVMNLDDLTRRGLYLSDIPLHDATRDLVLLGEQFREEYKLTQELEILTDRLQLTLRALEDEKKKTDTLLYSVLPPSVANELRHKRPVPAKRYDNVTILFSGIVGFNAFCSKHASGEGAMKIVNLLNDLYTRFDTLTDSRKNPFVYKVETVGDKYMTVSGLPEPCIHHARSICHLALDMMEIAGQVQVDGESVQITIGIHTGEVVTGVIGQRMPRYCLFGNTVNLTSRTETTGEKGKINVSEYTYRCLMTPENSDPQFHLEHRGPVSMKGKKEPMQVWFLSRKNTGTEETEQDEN
Experiment: Activity of purified sGC stimulated with DEA/NO
Type: biochemical, bovine
Conditions: flavoring 1 mM, DEA/NO 0.01–10 μM
Experimental: The activity of sGC purified from bovine lung was determined as formation of [^32P]cGMP from [α-^32P]GTP. The purified enzyme (50 ng) was incubated at 37°C for 10 min in a final volume of 0.1 ml in the absence or presence of flavorings with the NO donor DEA/NO at concentrations indicated in the figure legends, followed by isolation of [^32P]cGMP and quantification of radioactivity (Cerenkov radiation) in a β counter.
To test for reversibility of inhibition, sGC (50 ng) was preincubated in the absence or presence of the respective compounds for 5 minutes at 37°C, followed by 50-fold dilution in the assay mixtures and incubation with DEA/NO at 37°C for 10 minutes.

Emax of DEA/NO-stimulated sGC activity in presence of flavoring [µmol cGMP x min-1 x mg-1]	Compound
28±0.8	CC(=O)c1ccccn1 [Acetylpyridine, 1-(Pyridin-2-yl)ethan-1-one]

Test system: not given
Experiment: not given
Conditions: rats, after intravenous cinnamaldehyde; cited from earlier work

Compound	Biological half-life
O=C(O)/C=C/c1ccccc1 [cinnamic acid]	about 7 minutes

Source: article PMC6733504, “Effects of flavoring compounds used in electronic cigarette refill liquids on endothelial and vascular function” (PLoS ONE, 2019)
